Consider 15 compounds from patent publication US12049450B2, “Pyridyloxy-carboxylate derivative and preparation method therefor, herbicidal composition, and use” (Qingdao Kingagroot Chemical Compound Co., Ltd., priority 2018, dated 2024).

Holding throughout (assay): Post-emergence test experiment (greenhouse pot, spray at 2-3 leaf stage)
Assay type in all cases: in vivo
Common to all, as to details: 1000 g/ha; post-emergence spray at 2-3 leaf stage; assessed after 3 weeks; fresh weight inhibition rate

One experiment has as its system Echinochloa crusgalli. An outline of the steps: (§1)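 Activity graded levels 0-5 by fresh-weight inhibition (level 5 above 85%, level 0 below 5%), assessed 3 weeks after treatment. Plants grown in greenhouse pots were sprayed post-emergence at 2-3 leaves using acetone/tween-80 solutions with methyl oleate synergist (1.5 L/ha).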
The next experiment has as its system Abutilon theophrasti. An outline of the steps:
as §1

Another experiment relates to Digitaria sanguinalis. In a few lines:
as §1

In a further experiment the test system is Monochoria vaginalis. An outline of the steps:
as §1

For another experiment, the system named is Galium spurium. In a few lines: as §1

Take `CC(Oc1nc(F)c(Cl)c(N)c1Cl)C(=O)OCc1cncnc1` (stereo not drawn) [Compound 124]: the “Activity level (growth inhibition rate) Echinochloa crusgalli” value in the experiment on Echinochloa crusgalli is 5 (Level 5: the growth inhibition rate is greater than 85%). Moreover, the “Activity level (growth inhibition rate) Abutilon theophrasti” value with Abutilon theophrasti is listed as 5 (Level 5: the growth inhibition rate is greater than 85%). Also, the “Activity level (growth inhibition rate) Digitaria sanguinalis” value in the experiment on Digitaria sanguinalis is 5 (Level 5: the growth inhibition rate is greater than 85%). Besides, the “Activity level (growth inhibition rate) Monochoria Vaginalis” value with Monochoria vaginalis was 5 (Level 5: the growth inhibition rate is greater than 85%). Also, the “Activity level (growth inhibition rate) Galium spurium” value in the experiment on Galium spurium was 5 (Level 5: the growth inhibition rate is greater than 85%).

`CC(Oc1nc(F)c(Cl)c(N)c1Cl)C(=O)SCCc1ccncn1` (stereo not drawn) [Compound 125]: the “Activity level (growth inhibition rate) Echinochloa crusgalli” value in the experiment with Echinochloa crusgalli is recorded as 5 (Level 5: the growth inhibition rate is greater than 85%). For the same compound, the “Activity level (growth inhibition rate) Abutilon theophrasti” value in the experiment on Abutilon theophrasti is 5 (Level 5: the growth inhibition rate is greater than 85%). Also, in the experiment with Digitaria sanguinalis, the “Activity level (growth inhibition rate) Digitaria sanguinalis” value is listed as 5 (Level 5: the growth inhibition rate is greater than 85%). The “Activity level (growth inhibition rate) Monochoria Vaginalis” value with Monochoria vaginalis is 5 (Level 5: the growth inhibition rate is greater than 85%). Besides, the “Activity level (growth inhibition rate) Galium spurium” value with Galium spurium is recorded as 5 (Level 5: the growth inhibition rate is greater than 85%).

On to `CC(Oc1nc(F)c(Cl)c(N)c1Cl)C(=O)OCc1ncncn1` (stereo not drawn) [Compound 126], for which, in the experiment on Echinochloa crusgalli, the “Activity level (growth inhibition rate) Echinochloa crusgalli” value was 5 (Level 5: the growth inhibition rate is greater than 85%). Also, the “Activity level (growth inhibition rate) Abutilon theophrasti” value with Abutilon theophrasti was 5 (Level 5: the growth inhibition rate is greater than 85%). Besides, in the experiment on Digitaria sanguinalis, the “Activity level (growth inhibition rate) Digitaria sanguinalis” value was 5 (Level 5: the growth inhibition rate is greater than 85%). For the same compound, the “Activity level (growth inhibition rate) Monochoria Vaginalis” value with Monochoria vaginalis is reported as 5 (Level 5: the growth inhibition rate is greater than 85%). For the same compound, the “Activity level (growth inhibition rate) Galium spurium” value in the experiment with Galium spurium was 5 (Level 5: the growth inhibition rate is greater than 85%).

With `Cc1cc(COC(=O)C(C)Oc2nc(F)c(Cl)c(N)c2Cl)n(C)n1` (stereo not drawn) [Compound 127], in the experiment on Echinochloa crusgalli, the “Activity level (growth inhibition rate) Echinochloa crusgalli” value is given as 5 (Level 5: the growth inhibition rate is greater than 85%). In the experiment on Abutilon theophrasti, the “Activity level (growth inhibition rate) Abutilon theophrasti” value is 5 (Level 5: the growth inhibition rate is greater than 85%). In addition, the “Activity level (growth inhibition rate) Digitaria sanguinalis” value with Digitaria sanguinalis is reported as 5 (Level 5: the growth inhibition rate is greater than 85%). For the same compound, in the experiment with Monochoria vaginalis, the “Activity level (growth inhibition rate) Monochoria Vaginalis” value is 5 (Level 5: the growth inhibition rate is greater than 85%). In addition, the “Activity level (growth inhibition rate) Galium spurium” value in the experiment on Galium spurium is given as 5 (Level 5: the growth inhibition rate is greater than 85%).

As to `CC(Oc1nc(F)c(Cl)c(N)c1Cl)C(=O)OCc1cn(C)cn1` (stereo not drawn) [Compound 129], the “Activity level (growth inhibition rate) Echinochloa crusgalli” value in the experiment with Echinochloa crusgalli is 5 (Level 5: the growth inhibition rate is greater than 85%). In addition, the “Activity level (growth inhibition rate) Abutilon theophrasti” value with Abutilon theophrasti is given as 5 (Level 5: the growth inhibition rate is greater than 85%). Moreover, the “Activity level (growth inhibition rate) Digitaria sanguinalis” value with Digitaria sanguinalis is reported as 5 (Level 5: the growth inhibition rate is greater than 85%). The “Activity level (growth inhibition rate) Monochoria Vaginalis” value with Monochoria vaginalis is recorded as 5 (Level 5: the growth inhibition rate is greater than 85%). Further, the “Activity level (growth inhibition rate) Galium spurium” value with Galium spurium is given as 5 (Level 5: the growth inhibition rate is greater than 85%).

For the compound `CC(Oc1nc(F)c(Cl)c(N)c1Cl)C(=O)OCc1nccn1C` (stereo not drawn) [Compound 130], the “Activity level (growth inhibition rate) Echinochloa crusgalli” value in the experiment with Echinochloa crusgalli is recorded as 5 (Level 5: the growth inhibition rate is greater than 85%). In addition, the “Activity level (growth inhibition rate) Abutilon theophrasti” value in the experiment on Abutilon theophrasti is 5 (Level 5: the growth inhibition rate is greater than 85%). Further, the “Activity level (growth inhibition rate) Digitaria sanguinalis” value in the experiment with Digitaria sanguinalis is reported as 5 (Level 5: the growth inhibition rate is greater than 85%). Besides, in the experiment on Monochoria vaginalis, the “Activity level (growth inhibition rate) Monochoria Vaginalis” value is 5 (Level 5: the growth inhibition rate is greater than 85%). Also, the “Activity level (growth inhibition rate) Galium spurium” value in the experiment with Galium spurium is given as 5 (Level 5: the growth inhibition rate is greater than 85%).

Consider `CC(Oc1nc(F)c(Cl)c(N)c1Cl)C(=O)OCc1cncn1C` (stereo not drawn) [Compound 131], for which, in the experiment on Echinochloa crusgalli, the “Activity level (growth inhibition rate) Echinochloa crusgalli” value was 5 (Level 5: the growth inhibition rate is greater than 85%). Besides, the “Activity level (growth inhibition rate) Abutilon theophrasti” value in the experiment on Abutilon theophrasti is 5 (Level 5: the growth inhibition rate is greater than 85%). For the same compound, the “Activity level (growth inhibition rate) Digitaria sanguinalis” value with Digitaria sanguinalis is given as 5 (Level 5: the growth inhibition rate is greater than 85%). The “Activity level (growth inhibition rate) Monochoria Vaginalis” value with Monochoria vaginalis is 5 (Level 5: the growth inhibition rate is greater than 85%). Moreover, the “Activity level (growth inhibition rate) Galium spurium” value with Galium spurium is 5 (Level 5: the growth inhibition rate is greater than 85%).

For the compound `CC(Oc1nc(F)c(Cl)c(N)c1Cl)C(=O)SCc1ccnn1C` (stereo not drawn) [Compound 132], the “Activity level (growth inhibition rate) Echinochloa crusgalli” value with Echinochloa crusgalli is on record as 5 (Level 5: the growth inhibition rate is greater than 85%). In the experiment on Abutilon theophrasti, the “Activity level (growth inhibition rate) Abutilon theophrasti” value is recorded as 5 (Level 5: the growth inhibition rate is greater than 85%). The “Activity level (growth inhibition rate) Digitaria sanguinalis” value in the experiment on Digitaria sanguinalis is on record as 5 (Level 5: the growth inhibition rate is greater than 85%). Moreover, in the experiment on Monochoria vaginalis, the “Activity level (growth inhibition rate) Monochoria Vaginalis” value is reported as 5 (Level 5: the growth inhibition rate is greater than 85%). For the same compound, in the experiment with Galium spurium, the “Activity level (growth inhibition rate) Galium spurium” value is listed as 5 (Level 5: the growth inhibition rate is greater than 85%).

With `CCCn1cc(CCOC(=O)C(C)Oc2nc(F)c(Cl)c(N)c2Cl)cn1` (stereo not drawn) [Compound 133], the “Activity level (growth inhibition rate) Echinochloa crusgalli” value in the experiment with Echinochloa crusgalli was 5 (Level 5: the growth inhibition rate is greater than 85%). In the experiment on Abutilon theophrasti, the “Activity level (growth inhibition rate) Abutilon theophrasti” value is listed as 5 (Level 5: the growth inhibition rate is greater than 85%). In addition, the “Activity level (growth inhibition rate) Digitaria sanguinalis” value in the experiment with Digitaria sanguinalis is 5 (Level 5: the growth inhibition rate is greater than 85%). For the same compound, the “Activity level (growth inhibition rate) Monochoria Vaginalis” value in the experiment with Monochoria vaginalis is recorded as 5 (Level 5: the growth inhibition rate is greater than 85%). The “Activity level (growth inhibition rate) Galium spurium” value with Galium spurium was 5 (Level 5: the growth inhibition rate is greater than 85%).

`CC(Oc1nc(F)c(Cl)c(N)c1Cl)C(=O)SCc1nncn1C` (stereo not drawn) [Compound 134]: in the experiment on Echinochloa crusgalli, the “Activity level (growth inhibition rate) Echinochloa crusgalli” value is listed as 5 (Level 5: the growth inhibition rate is greater than 85%). For the same compound, the “Activity level (growth inhibition rate) Abutilon theophrasti” value in the experiment on Abutilon theophrasti is 5 (Level 5: the growth inhibition rate is greater than 85%). The “Activity level (growth inhibition rate) Digitaria sanguinalis” value in the experiment with Digitaria sanguinalis is on record as 5 (Level 5: the growth inhibition rate is greater than 85%). For the same compound, in the experiment with Monochoria vaginalis, the “Activity level (growth inhibition rate) Monochoria Vaginalis” value was 5 (Level 5: the growth inhibition rate is greater than 85%). Also, in the experiment on Galium spurium, the “Activity level (growth inhibition rate) Galium spurium” value is reported as 5 (Level 5: the growth inhibition rate is greater than 85%).

With `CC(Oc1nc(F)c(Cl)c(N)c1Cl)C(=O)OCCc1cnn[nH]1` (stereo not drawn) [Compound 135], the “Activity level (growth inhibition rate) Echinochloa crusgalli” value in the experiment on Echinochloa crusgalli is 5 (Level 5: the growth inhibition rate is greater than 85%). Further, the “Activity level (growth inhibition rate) Abutilon theophrasti” value with Abutilon theophrasti is given as 5 (Level 5: the growth inhibition rate is greater than 85%). Further, the “Activity level (growth inhibition rate) Digitaria sanguinalis” value in the experiment on Digitaria sanguinalis is 5 (Level 5: the growth inhibition rate is greater than 85%). In addition, the “Activity level (growth inhibition rate) Monochoria Vaginalis” value in the experiment on Monochoria vaginalis is 5 (Level 5: the growth inhibition rate is greater than 85%). The “Activity level (growth inhibition rate) Galium spurium” value with Galium spurium is on record as 5 (Level 5: the growth inhibition rate is greater than 85%).

As for `CC(Oc1nc(F)c(Cl)c(N)c1Cl)C(=O)OCn1cncn1` (stereo not drawn) [Compound 136], the “Activity level (growth inhibition rate) Echinochloa crusgalli” value in the experiment on Echinochloa crusgalli was 5 (Level 5: the growth inhibition rate is greater than 85%). For the same compound, in the experiment with Abutilon theophrasti, the “Activity level (growth inhibition rate) Abutilon theophrasti” value was 5 (Level 5: the growth inhibition rate is greater than 85%). Moreover, in the experiment on Digitaria sanguinalis, the “Activity level (growth inhibition rate) Digitaria sanguinalis” value is reported as 5 (Level 5: the growth inhibition rate is greater than 85%). For the same compound, in the experiment on Monochoria vaginalis, the “Activity level (growth inhibition rate) Monochoria Vaginalis” value is given as 5 (Level 5: the growth inhibition rate is greater than 85%). Also, in the experiment with Galium spurium, the “Activity level (growth inhibition rate) Galium spurium” value is reported as 5 (Level 5: the growth inhibition rate is greater than 85%).

For `CC(Oc1nc(F)c(Cl)c(N)c1Cl)C(=O)SCn1ccnn1` (stereo not drawn) [Compound 137], in the experiment on Echinochloa crusgalli, the “Activity level (growth inhibition rate) Echinochloa crusgalli” value is recorded as 5 (Level 5: the growth inhibition rate is greater than 85%). Besides, the “Activity level (growth inhibition rate) Abutilon theophrasti” value with Abutilon theophrasti is given as 5 (Level 5: the growth inhibition rate is greater than 85%). Further, in the experiment with Digitaria sanguinalis, the “Activity level (growth inhibition rate) Digitaria sanguinalis” value is recorded as 5 (Level 5: the growth inhibition rate is greater than 85%). In addition, the “Activity level (growth inhibition rate) Monochoria Vaginalis” value in the experiment on Monochoria vaginalis was 5 (Level 5: the growth inhibition rate is greater than 85%). Moreover, the “Activity level (growth inhibition rate) Galium spurium” value in the experiment on Galium spurium is listed as 5 (Level 5: the growth inhibition rate is greater than 85%).

In the case of `CC(Oc1nc(F)c(Cl)c(N)c1Cl)C(=O)OCc1nnnn1C` (stereo not drawn) [Compound 138], in the experiment with Echinochloa crusgalli, the “Activity level (growth inhibition rate) Echinochloa crusgalli” value is reported as 5 (Level 5: the growth inhibition rate is greater than 85%). Also, the “Activity level (growth inhibition rate) Abutilon theophrasti” value in the experiment with Abutilon theophrasti was 5 (Level 5: the growth inhibition rate is greater than 85%). The “Activity level (growth inhibition rate) Digitaria sanguinalis” value in the experiment with Digitaria sanguinalis is recorded as 5 (Level 5: the growth inhibition rate is greater than 85%). The “Activity level (growth inhibition rate) Monochoria Vaginalis” value in the experiment on Monochoria vaginalis is reported as 5 (Level 5: the growth inhibition rate is greater than 85%). The “Activity level (growth inhibition rate) Galium spurium” value with Galium spurium is on record as 5 (Level 5: the growth inhibition rate is greater than 85%).

With `CC(Oc1nc(F)c(Cl)c(N)c1Cl)C(=O)SCc1ccco1` (stereo not drawn) [Compound 139], the “Activity level (growth inhibition rate) Echinochloa crusgalli” value with Echinochloa crusgalli is 5 (Level 5: the growth inhibition rate is greater than 85%). For the same compound, the “Activity level (growth inhibition rate) Abutilon theophrasti” value in the experiment on Abutilon theophrasti was 5 (Level 5: the growth inhibition rate is greater than 85%). The “Activity level (growth inhibition rate) Digitaria sanguinalis” value in the experiment with Digitaria sanguinalis is 5 (Level 5: the growth inhibition rate is greater than 85%). In addition, the “Activity level (growth inhibition rate) Monochoria Vaginalis” value in the experiment on Monochoria vaginalis is recorded as 5 (Level 5: the growth inhibition rate is greater than 85%). The “Activity level (growth inhibition rate) Galium spurium” value in the experiment with Galium spurium is 5 (Level 5: the growth inhibition rate is greater than 85%).
